{
  "source": "patent US8951999B2",
  "about": "“Compounds” (Orexo AB, priority 2009, dated 2015)",
  "data": [
    {"target": "T1, recombinant human mPGES-1 (Homo sapiens, UniProt O14684)", "T1 sequence (O14684 1-152)": "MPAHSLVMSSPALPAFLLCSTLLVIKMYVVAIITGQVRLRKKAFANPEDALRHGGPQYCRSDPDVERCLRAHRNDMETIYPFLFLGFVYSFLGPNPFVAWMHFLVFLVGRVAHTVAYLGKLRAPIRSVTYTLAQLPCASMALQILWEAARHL", "experiment": "Assay B: mPGES-1 enzyme assay (modified)", "assay_type": "biochemical", "details": "biological assay B (all other compounds); PGH2 final conc. 2 μM, HTRF; read-out: mPGES-1 inhibitory effect IC50", "description": "Assay B: mPGES-1 Enzyme Assay (Modified)\nThe aim of this assay is to determine the affinity of a test compound for the mPGES-1 enzyme.\n47 μl of recombinant human mPGES-1 (˜0.5 μg protein/well) containing microsomal suspension in a buffer containing GSH, (2.5 mmol/L L-Glutathione reduced, dissolved in 0.1 mol/L Phosphat Buffer pH 7.4) is dispensed in a 384-well plate and thereafter 1 μl of the test compound(s) is/are added and incubated for 25 minutes at room temperature. The enzyme reaction is started by the addition of 2 ul PGH2 (final conc. 2 μM) dissolved in water-free Diglyme. After 60 seconds the reaction is terminated by addition of a stop solution containing FeCl2 (10 μL 0.074 mol/l FeCl2). The samples are diluted between 1:25 in PBS (Phosphate Buffered Saline). 10 μl of the diluted samples are transferred to 384-well low volume plate. In order to quantify the amount of PGE2 that has been formed, a homogenous time resolved fluorescent (HTRF) detecting of PGE2 has been performed using a commercially available kit from Cisbio according to the manufactures recommendation. This HTRF-based assay has been described in detail (see: Goedken et al., J Biomol Screen, 2008, 13(7), 619-625). Briefly, the diluted samples are mixed with […] PGE2-d2 conjugate and 5 μl anti-PGE2 cryptate conjugate. After an incubation period of the plates over night, the fluorescence is measured by the use of an appropriate microplate reader.\nThe fluorescence of Europium cryptate (maxex=307 nm, maxem=620 nm) and d2-PGE2 (maxex=620 nm, maxem=665 nm) are measured.\nThe extent of the specific HTRF is measured as a ratio of the emission intensity at 665 nm vs. that at 620 nm at an excitation pulse of 320 nm. The quantification plate contains also wells with different concentrations of PGE2 as calibration curve for the calculation of the PGE2 concentrations from the HTRF ratio values.\nFrom all mPGES enzyme assay the background is subtracted and the IC50 is calculated over a nonlinear regression with conventional software.", "units": {"IC50": "nM"}, "values": [
      {"smiles": "CC(C)(C)C(=O)NCc1ccc(Cl)c(C(=O)Nc2cnc(OCC(F)F)c(C(=O)N[C@H]3CC[C@H](C(F)(F)F)CC3)c2)c1Cl", "note": "[Example 178]", "IC50": 7},
      {"smiles": "CC(C)(C(=O)NCc1ccc(Cl)c(C(=O)Nc2ccc(OCC(F)F)c(C(=O)Nc3cc(F)cc(Cl)c3)c2)c1Cl)C(F)(F)F", "note": "[Example 151]", "IC50": 1},
      {"smiles": "CC(C)(C(=O)NCc1ccc(Cl)c(C(=O)Nc2ccc(OCC(F)F)c(C(=O)NC3CC4CCC3C4)c2)c1)C(F)(F)F", "note": "(stereo not shown) [Example 124]", "IC50": 5},
      {"smiles": "CC(C)(C(=O)NCc1ccc(Cl)c(C(=O)Nc2ccc(OCC(F)F)c(C(=O)NCc3cccc(C(F)(F)F)c3)c2)c1)C(F)(F)F", "note": "[Example 101]", "IC50": 9},
      {"smiles": "CC(C)(C)C(=O)NCc1ccc(Cl)c(C(=O)Nc2cnc(OCC(F)F)c(C(=O)Nc3ccc(Cl)c(F)c3)c2)c1Cl", "note": "[Example 76]", "IC50": 12},
      {"smiles": "CC(C)(C(=O)NCc1ccc(Cl)c(C(=O)Nc2ccc(OCC(F)F)c(C(=O)NC3CCCOC3)c2)c1)C(F)(F)F", "note": "(stereo not shown) [Example 123]", "IC50": 48},
      {"smiles": "CC(C)(C(=O)NCc1ccc(Cl)c(C(=O)Nc2ccc(OCC(F)F)c(C(=O)Nc3ccc(Br)cc3F)c2)c1)C(F)(F)F", "note": "[Example 100]", "IC50": 5},
      {"smiles": "CC(C)(C(=O)NCc1ccc(Cl)c(C(=O)Nc2ccc(OCC(F)F)c(C(=O)NC[C@@H]3CCCO3)c2)c1)C(F)(F)F", "note": "[Example 117]", "IC50": 40},
      {"smiles": "CC(C)(C)C(=O)NCc1ccc(C(F)(F)F)c(C(=O)Nc2ccc(OCC(F)F)c(C(=O)Nc3ccc(Br)cc3)c2)c1", "note": "[Example 42, N-[4-(2,2-Difluoroethyl)oxy-3-(4-bromophenyl)aminocarbonyl-phenyl]-2-trifluormethyl-5-(tert-butylcarbonylamino)methyl-benzamide]", "IC50": 3},
      {"smiles": "CC(NC(=O)c1cc(NC(=O)c2c(Cl)ccc(CNC(=O)C(C)(C)C(F)(F)F)c2Cl)ccc1OCC(F)F)C1CC1", "note": "(stereo not shown) [Example 148]", "IC50": 1},
      {"smiles": "COCCOc1ccc(NC(=O)c2cc(CNC(=O)C(C)(C)C)ccc2Cl)cc1C(=O)N[C@H]1CC[C@H](C(F)(F)F)CC1", "note": "[Example 71]", "IC50": 10},
      {"smiles": "CC(C)(C)C(=O)NCc1ccc(F)c(C(=O)Nc2ccc(OCC(F)F)c(C(=O)Nc3ccc(Br)cc3)c2)c1Cl", "note": "[Example 44, N-[4-(2,2-Difluoroethyl)oxy-3-(4-bromophenyl)aminocarbonyl-phenyl]-6-fluor-2-chlor-3-(tert-butylcarbonylamino)methyl-benzamide]", "IC50": 15},
      {"smiles": "CC(C)(C(=O)NCc1ccc(Cl)c(C(=O)Nc2ccc(OCC(F)F)c(C(=O)NCc3ccccc3C(F)(F)F)c2)c1)C(F)(F)F", "note": "[Example 84]", "IC50": 6},
      {"smiles": "CC(C)(C(=O)NCc1ccc(Cl)c(C(=O)Nc2ccc(OCC(F)F)c(C(=O)NCC(F)(F)F)c2)c1Cl)C(F)(F)F", "note": "[Example 147]", "IC50": 8},
      {"smiles": "CC(C)(C(=O)NCc1ccc(Cl)c(C(=O)Nc2ccc(OCC(F)F)c(C(=O)NC3CCC4(CC3)CC4)c2)c1)C(F)(F)F", "note": "[Example 136]", "IC50": 7},
      {"smiles": "COCCOc1ccc(NC(=O)c2cc(CNC(=O)C(C)(C)C)ccc2Cl)cc1C(=O)Nc1ccc(Br)cc1", "note": "[Example 70]", "IC50": 5},
      {"smiles": "CC(C)(C(=O)NCc1ccc(Cl)c(C(=O)Nc2ccc(OCC(F)F)c(C(=O)NCC3CCCOC3)c2)c1)C(F)(F)F", "note": "(stereo not shown) [Example 98]", "IC50": 43},
      {"smiles": "CC(C)(C(=O)NCc1ccc(Cl)c(C(=O)Nc2ccc(OCC(F)F)c(C(=O)Nc3ccnc4ccccc34)c2)c1)C(F)(F)F", "note": "[Example 131]", "IC50": 9},
      {"smiles": "O=C(Nc1ccc(Br)cc1)c1cc(NC(=O)c2c(F)ccc(CNC(=O)C(F)(F)F)c2Cl)ccc1OCC(F)F", "note": "[Example 43, N-[4-(2,2-Difluoroethyl)oxy-3-(4-bromophenyl)aminocarbonyl-phenyl]-6-fluor-2-chlor-3-(trifluormethylcarbonylamino)methyl-benzamide]", "IC50": 120},
      {"smiles": "CC(O)(C(=O)NCc1ccc(Cl)c(C(=O)Nc2ccc(OCC(F)F)c(C(=O)Nc3ccc(Br)cc3)c2)c1)C(F)(F)F", "note": "(stereo not shown) [Example 166]", "IC50": 8},
      {"smiles": "CC(C)(C)C(=O)NCc1ccc(Cl)c(C(=O)Nc2ccc(N3CCC(F)CC3)c(C(=O)Nc3ccc(Br)cc3)c2)c1Cl", "note": "[Example 61]", "IC50": 5},
      {"smiles": "CC(C)(C)C(=O)NCc1ccc(Cl)c(C(=O)Nc2ccc(OCC(F)F)c(C(=O)Nc3ccc(Br)cc3)c2)c1F", "note": "[Example 45, N-[4-(2,2-Difluoroethyl)oxy-3-(4-bromophenyl)aminocarbonyl-phenyl]-6-chlor-2-fluor-3-(tert-butylcarbonylamino)methyl-benzamide]", "IC50": 4},
      {"smiles": "CC(C)(C(=O)NCc1ccc(Cl)c(C(=O)Nc2ccc(OCC(F)F)c(C(=O)Nc3ccc(F)c(Cl)c3)c2)c1F)C(F)(F)F", "note": "[Example 77, N-[4-(2,2-Difluoroethyl)oxy-3-(4-fluoro-3-chloro-phenyl)aminocarbonyl-phenyl]-6-chloro-2-fluoro-3-[(2,2,2-trifluoro-1,1-dimethyl-ethyl)carbonylamino]methyl-benzamide]", "IC50": 2},
      {"smiles": "CC(C)(C(=O)NCc1ccc(Cl)c(C(=O)Nc2ccc(OCC(F)F)c(C(=O)NC3CC(F)(F)C3)c2)c1Cl)C(F)(F)F", "note": "[Example 154]", "IC50": 9},
      {"smiles": "CC(C)(C(=O)NCc1ccc(Cl)c(C(=O)Nc2ccc(OCC(F)F)c(C(=O)NC3CCC(F)(F)CC3)c2)c1Cl)C(F)(F)F", "note": "[Example 157]", "IC50": 22},
      {"smiles": "CC(C)(C(=O)NCc1ccc(Cl)c(C(=O)Nc2ccc(OCC(F)F)c(C(=O)Nc3cc(C(F)(F)F)ccn3)c2)c1)C(F)(F)F", "note": "[Example 109]", "IC50": 13},
      {"smiles": "CC(C)(C(=O)NCc1ccc(Cl)c(C(=O)Nc2ccc(OCC(F)F)c(C(=O)NC3CCC3)c2)c1)C(F)(F)F", "note": "[Example 122]", "IC50": 7},
      {"smiles": "CNC(C)(C)C(=O)NCc1ccc(Cl)c(C(=O)Nc2ccc(OCC(F)F)c(C(=O)Nc3ccc(Br)cc3)c2)c1", "note": "[Example 176]", "IC50": 50},
      {"smiles": "CC(C)(C(=O)NCc1ccc(Cl)c(C(=O)Nc2ccc(OCC(F)F)c(C(=O)Nc3ccc(Cl)c(C#N)c3)c2)c1)C(F)(F)F", "note": "[Example 106]", "IC50": 6},
      {"smiles": "CC(C)(C(=O)NCc1ccc(Cl)c(C(=O)Nc2ccc(OCC(F)F)c(C(=O)NCc3ncccc3C(F)(F)F)c2)c1)C(F)(F)F", "note": "[Example 138]", "IC50": 5},
      {"smiles": "Cc1c(CNC(=O)C(C)(C)C)ccc(Cl)c1C(=O)Nc1ccc(OCC(F)F)c(C(=O)Nc2ccc(Br)cc2)c1", "note": "[Example 51, N-[4-(2,2-Difluoroethyl)oxy-3-(4-bromophenyl)aminocarbonyl-phenyl]-6-chloro-2-methyl-3-(tert-butylcarbonylamino)methyl-benzamide]", "IC50": 5},
      {"smiles": "CC(N)(C(=O)NCc1ccc(Cl)c(C(=O)Nc2ccc(OCC(F)F)c(C(=O)Nc3ccc(Br)cc3)c2)c1)C(F)(F)F", "note": "(stereo not shown) [Example 171]", "IC50": 6},
      {"smiles": "CC(C)(O)C(=O)NCc1ccc(Cl)c(C(=O)Nc2ccc(OCC(F)F)c(C(=O)Nc3ccc(Br)cc3)c2)c1", "note": "[Example 172]", "IC50": 6},
      {"smiles": "COc1cc(Cl)ccc1NC(=O)c1cc(NC(=O)c2c(Cl)ccc(CNC(=O)C(C)(C)C(F)(F)F)c2Cl)ccc1OCC(F)F", "note": "[Example 158]", "IC50": 2},
      {"smiles": "CC(C)(C(=O)NCc1ccc(Cl)c(C(=O)Nc2ccc(OCC(F)F)c(C(=O)Nc3ccc(Br)cc3)c2)c1)C(F)(F)F", "note": "[Example 81]", "IC50": 2},
      {"smiles": "CC(C)(C(=O)NCc1ccc(Cl)c(C(=O)Nc2ccc(OCC(F)F)c(C(=O)NC3CCC(C(F)F)CC3)c2)c1Cl)C(F)(F)F", "note": "(stereo not shown) [Example 149]", "IC50": 4},
      {"smiles": "CC(C)(C)C(=O)NCc1ccc(Cl)c(C(=O)Nc2ccc(N[C@H]3CC[C@H](C(F)(F)F)CC3)c(C(=O)N[C@H]3CC[C@H](C(F)(F)F)CC3)c2)c1", "note": "[Example 56, N-[4-(trans-4-trifluoromethylcyclohexyl)amino-3-[trans-(4-trifluoromethylcyclohexyl)amino]carbonyl-phenyl]-2-chloro-5-(tert-butylcarbonylamino)methyl-benzamide]", "IC50": 128},
      {"smiles": "CC(C)(C(=O)NCc1ccc(Cl)c(C(=O)Nc2ccc(OCC(F)F)c(C(=O)Nc3ccc(Cl)c(C(F)(F)F)c3)c2)c1)C(F)(F)F", "note": "[Example 126]", "IC50": 4},
      {"smiles": "CC(C)(C(=O)NCc1ccc(Cl)c(C(=O)Nc2ccc(OCC(F)F)c(C(=O)Nc3cccc(F)c3)c2)c1)C(F)(F)F", "note": "[Example 119]", "IC50": 5},
      {"smiles": "O=C(Nc1ccc(OCC(F)F)c(C(=O)Nc2ccc(Br)cc2)c1)c1cc(CNC(=O)C2(O)CC2)ccc1Cl", "note": "[Example 162]", "IC50": 8},
      {"smiles": "CC(C)(C)C(=O)NCc1ccc(Cl)c(C(=O)Nc2ccc(N3CCCC(C(F)(F)F)C3)c(C(=O)Nc3ccc(Br)cc3)c2)c1Cl", "note": "(stereo not shown) [Example 180]", "IC50": 2},
      {"smiles": "CCNC(=O)c1cc(NC(=O)c2cc(CNC(=O)C(C)(C)C(F)(F)F)ccc2Cl)ccc1OCC(F)F", "note": "[Example 112]", "IC50": 16},
      {"smiles": "CC(C)(C)C1CCC(NC(=O)c2cc(NC(=O)c3cc(CNC(=O)C(C)(C)C(F)(F)F)ccc3Cl)ccc2OCC(F)F)CC1", "note": "(stereo not shown) [Example 87]", "IC50": 5}
    ]}
  ]
}
